Assays:
[1] = biological target: Sodium-dependent dopamine transporter (Homo sapiens, UniProt Q01959); assay: Binding affinity to dopamine transporter in membranes of cells selectively expressing the human genes for DAT; format: cell membranes
[2] = biological target: Norepinephrine transporter (Rattus norvegicus, UniProt Q9WTR4); assay: Binding affinity to norepinephrine (NE) transporter in rat forebrain tissue; format: tissue-based
[3] = biological target: Sodium-dependent serotonin transporter (Rattus norvegicus, UniProt P31652); assay: Binding affinity to serotonin transporter (SERT) in rat forebrain tissue; format: tissue-based
[4] = biological target: Sodium-dependent serotonin transporter (Homo sapiens, UniProt P31645); assay: Binding affinity to serotonin transporter (SERT) in membranes of cells selectively expressing the human genes for SERT; format: cell membranes
[5] = biological target: Monoamine transporters; serotonin & dopamine (Homo sapiens) (UniProt P31645+Q01959); assay: Binding selectivity ratio at human serotonin transporter versus dopamine transporter (hSERT/hDAT); format: protein assay
[6] = biological target: Sodium-dependent dopamine transporter (Rattus norvegicus, UniProt P23977); assay: Binding affinity to dopamine transporter (DAT) in rat forebrain tissue; format: tissue-based
[7] = biological target: Sodium-dependent noradrenaline transporter (Homo sapiens, UniProt P23975); assay: Binding affinity to norepinephrine (NE) transporter in membranes of cells selectively expressing the human genes for NET; format: cell membranes
Sodium-dependent noradrenaline transporter, sequence (P23975 whole entry): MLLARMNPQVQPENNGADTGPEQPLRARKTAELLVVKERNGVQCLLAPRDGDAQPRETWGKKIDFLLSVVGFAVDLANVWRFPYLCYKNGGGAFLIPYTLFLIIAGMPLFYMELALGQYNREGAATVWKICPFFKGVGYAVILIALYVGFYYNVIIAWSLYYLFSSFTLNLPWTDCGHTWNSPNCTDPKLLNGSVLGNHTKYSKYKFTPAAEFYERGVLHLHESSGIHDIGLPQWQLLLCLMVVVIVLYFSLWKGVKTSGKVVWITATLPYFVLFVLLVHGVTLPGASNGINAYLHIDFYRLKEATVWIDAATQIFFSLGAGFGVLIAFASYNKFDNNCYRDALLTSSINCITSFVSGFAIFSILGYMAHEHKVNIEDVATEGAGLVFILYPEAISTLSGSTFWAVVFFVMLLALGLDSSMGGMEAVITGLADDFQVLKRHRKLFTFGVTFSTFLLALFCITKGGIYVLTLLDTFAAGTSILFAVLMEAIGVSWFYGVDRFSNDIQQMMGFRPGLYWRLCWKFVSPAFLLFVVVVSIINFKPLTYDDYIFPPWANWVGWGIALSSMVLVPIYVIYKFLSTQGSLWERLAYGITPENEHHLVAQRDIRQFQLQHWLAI

Sodium-dependent dopamine transporter (Homo sapiens, UniProt Q01959), sequence (Q01959 whole entry): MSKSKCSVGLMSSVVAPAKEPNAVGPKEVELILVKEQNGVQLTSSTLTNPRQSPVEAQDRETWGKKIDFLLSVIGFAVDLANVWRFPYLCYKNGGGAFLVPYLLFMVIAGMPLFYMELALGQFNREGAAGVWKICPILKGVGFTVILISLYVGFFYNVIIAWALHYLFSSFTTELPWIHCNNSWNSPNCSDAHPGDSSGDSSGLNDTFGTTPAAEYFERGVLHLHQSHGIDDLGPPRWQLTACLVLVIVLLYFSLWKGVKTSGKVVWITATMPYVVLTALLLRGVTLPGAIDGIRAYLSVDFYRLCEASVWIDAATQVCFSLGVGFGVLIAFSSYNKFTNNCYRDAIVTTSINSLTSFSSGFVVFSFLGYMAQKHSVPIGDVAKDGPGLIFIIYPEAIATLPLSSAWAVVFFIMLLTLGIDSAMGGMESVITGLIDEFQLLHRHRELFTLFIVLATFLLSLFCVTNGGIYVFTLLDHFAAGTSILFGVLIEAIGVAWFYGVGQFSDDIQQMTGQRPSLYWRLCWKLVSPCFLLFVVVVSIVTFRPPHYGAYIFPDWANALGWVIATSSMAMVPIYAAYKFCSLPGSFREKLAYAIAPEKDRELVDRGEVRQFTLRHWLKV
Sodium-dependent serotonin transporter (Rattus norvegicus, UniProt P31652), sequence (P31652 whole entry): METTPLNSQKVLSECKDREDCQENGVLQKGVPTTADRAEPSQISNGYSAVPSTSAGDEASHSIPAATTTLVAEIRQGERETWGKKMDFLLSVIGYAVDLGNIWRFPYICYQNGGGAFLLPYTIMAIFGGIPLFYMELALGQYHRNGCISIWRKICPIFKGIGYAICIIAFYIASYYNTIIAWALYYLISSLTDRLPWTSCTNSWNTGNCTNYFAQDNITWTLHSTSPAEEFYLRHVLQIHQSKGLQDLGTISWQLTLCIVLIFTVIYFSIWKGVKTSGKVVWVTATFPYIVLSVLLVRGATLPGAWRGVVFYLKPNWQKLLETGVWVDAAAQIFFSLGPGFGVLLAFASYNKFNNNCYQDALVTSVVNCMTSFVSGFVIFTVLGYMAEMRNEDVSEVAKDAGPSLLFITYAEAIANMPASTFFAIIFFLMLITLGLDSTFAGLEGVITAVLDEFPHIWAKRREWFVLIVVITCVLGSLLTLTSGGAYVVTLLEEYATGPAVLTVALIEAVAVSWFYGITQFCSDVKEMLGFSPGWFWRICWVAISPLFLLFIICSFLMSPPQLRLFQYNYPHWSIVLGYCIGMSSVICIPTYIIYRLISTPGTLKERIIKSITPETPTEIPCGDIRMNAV
Sodium-dependent serotonin transporter (Homo sapiens, UniProt P31645), sequence (P31645 whole entry): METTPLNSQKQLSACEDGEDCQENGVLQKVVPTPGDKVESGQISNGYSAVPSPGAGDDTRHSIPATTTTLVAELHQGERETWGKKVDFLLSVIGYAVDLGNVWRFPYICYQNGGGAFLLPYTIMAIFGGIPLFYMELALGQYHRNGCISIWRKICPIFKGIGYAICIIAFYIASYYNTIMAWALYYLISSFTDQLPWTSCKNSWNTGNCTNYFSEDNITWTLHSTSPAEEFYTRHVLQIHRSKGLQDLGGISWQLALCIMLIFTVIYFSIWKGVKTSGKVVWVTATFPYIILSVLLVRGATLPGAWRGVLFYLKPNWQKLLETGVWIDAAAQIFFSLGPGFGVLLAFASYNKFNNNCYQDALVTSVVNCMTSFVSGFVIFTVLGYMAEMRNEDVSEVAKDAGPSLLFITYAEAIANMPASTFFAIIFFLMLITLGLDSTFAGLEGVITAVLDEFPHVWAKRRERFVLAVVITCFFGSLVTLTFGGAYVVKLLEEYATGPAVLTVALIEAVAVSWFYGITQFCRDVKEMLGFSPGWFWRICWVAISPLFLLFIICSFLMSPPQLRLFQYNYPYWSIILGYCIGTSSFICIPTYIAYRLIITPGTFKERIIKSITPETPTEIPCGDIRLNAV
Monoamine transporters; serotonin & dopamine (Homo sapiens), sequence (P31645 whole entry, looked up): as the sequence (P31645 whole entry) above
Monoamine transporters; serotonin & dopamine (Homo sapiens), sequence (Q01959 whole entry, looked up): as the sequence (Q01959 whole entry) above
Sodium-dependent dopamine transporter (Rattus norvegicus, UniProt P23977), sequence (P23977 whole entry): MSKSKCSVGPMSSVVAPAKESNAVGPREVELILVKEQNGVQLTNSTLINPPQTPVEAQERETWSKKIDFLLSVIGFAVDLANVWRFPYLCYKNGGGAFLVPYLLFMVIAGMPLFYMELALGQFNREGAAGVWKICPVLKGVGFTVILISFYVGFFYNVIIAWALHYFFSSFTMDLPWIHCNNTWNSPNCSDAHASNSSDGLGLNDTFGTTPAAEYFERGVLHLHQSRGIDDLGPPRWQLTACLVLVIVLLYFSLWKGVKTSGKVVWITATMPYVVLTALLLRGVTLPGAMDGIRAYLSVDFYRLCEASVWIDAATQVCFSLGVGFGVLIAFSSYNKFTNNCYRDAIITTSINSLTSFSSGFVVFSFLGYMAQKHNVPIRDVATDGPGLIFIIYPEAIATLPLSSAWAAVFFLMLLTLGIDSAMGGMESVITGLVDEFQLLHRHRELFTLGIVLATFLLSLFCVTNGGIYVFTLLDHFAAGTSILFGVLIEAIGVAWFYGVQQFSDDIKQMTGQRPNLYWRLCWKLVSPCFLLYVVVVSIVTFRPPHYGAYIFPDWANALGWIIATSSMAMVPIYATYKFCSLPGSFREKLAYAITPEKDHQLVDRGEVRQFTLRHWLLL
Norepinephrine transporter, sequence (Q9WTR4 whole entry): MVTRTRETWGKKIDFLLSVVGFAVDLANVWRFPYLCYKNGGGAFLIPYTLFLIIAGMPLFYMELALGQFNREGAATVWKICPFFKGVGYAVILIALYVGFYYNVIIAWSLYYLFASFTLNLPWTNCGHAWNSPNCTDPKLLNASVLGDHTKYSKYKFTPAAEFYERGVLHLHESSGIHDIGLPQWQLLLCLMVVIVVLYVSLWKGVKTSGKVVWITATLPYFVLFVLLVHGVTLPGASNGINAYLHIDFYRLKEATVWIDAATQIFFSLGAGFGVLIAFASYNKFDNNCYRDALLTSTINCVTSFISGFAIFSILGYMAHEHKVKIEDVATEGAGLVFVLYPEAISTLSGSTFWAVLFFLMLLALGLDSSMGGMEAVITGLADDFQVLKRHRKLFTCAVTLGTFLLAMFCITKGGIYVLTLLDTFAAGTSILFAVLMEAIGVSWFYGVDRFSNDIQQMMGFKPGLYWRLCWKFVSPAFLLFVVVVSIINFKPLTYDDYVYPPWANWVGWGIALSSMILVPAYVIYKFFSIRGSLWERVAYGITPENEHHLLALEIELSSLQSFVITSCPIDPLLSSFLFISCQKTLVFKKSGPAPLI

SMILES	Ki [1] [nM]	Ki [2] [nM]	Ki [3] [nM]	Ki [4] [nM]	Selectivity ratio [5]	Ki [6] [nM]	Ki [7] [nM]
COC(=O)C1C(c2cccc(-c3ccsc3)c2)CC2CCC1N2C (stereo not drawn)	29.8	> 10000	82.5	74.1	0.402	23.7	> 20000
COC(=O)[C@@H]1C2CC[C@H](C[C@@H]1c1ccc(I)cc1)N2C			0.41				11.2
COC(=O)C1C(c2cccc(I)c2)CC2CCC1N2C (stereo not drawn)	182	> 10000	9.82	9.63	18.9	100	1040
COC(=O)C1C2CCC(CC1c1ccc(I)cc1)N2 (stereo not drawn)			0.062				
COC(=O)C1C2CCC(CC1c1cccc(I)c1)N2 (stereo not drawn)	438	282	1.35	1.23	356	21.2	118
COC(=O)C1C(c2cccc(-c3ccccc3)c2)CC2CCC1N2C (stereo not drawn)	8.83	> 10000	35.2	38.6	0.229	9.59	1360
COC(=O)C1C(c2cccc(-c3ccco3)c2)CC2CCC1N2C (stereo not drawn)	54	10000	41.7	55.1	0.98	30.8	3020

Source: ChEMBL document CHEMBL1147545, “Synthesis and monoamine transporter affinity of 3'-analogs of 2-beta-carbomethoxy-3-beta-(4'-iodophenyl)tropane (beta-CIT)” (Bioorg Med Chem Lett, 2004)
